Patent US7220758B2, “Ether substituted imidazopyridines” (3M Innovative Properties Company, priority 2002, dated 2007)
Counter-ions that a name gives are not always drawn.

| SMILES | melting point |
| --- | --- |
| CCCCN(C)C(=O)c1ccc(S(=O)(=O)CCCn2c(CCC)nc3c(N)nc(C)c(C)c32)cc1 [Example 120, 4-[3-(4-Amino-6,7-dimethyl-2-propyl-1H-imidazo[4,5-c]pyridin-1-yl)propane-1-sulfonyl]-N-butyl-N-methylbenzamide] | 127 to 129 °C |
| CCCc1nc2c(N)nc(C)c(C)c2n1CCCS(=O)(=O)c1ccc(Cl)cc1 | 186.5 to 188 °C |
| CCOCc1nc2c(N)nc(C)c(C)c2n1CCOCC#Cc1ccccc1 [Example 122, 2-Ethoxymethyl-6,7-dimethyl-1-{2-[(3-phenylprop-2-ynyl)oxy]ethyl}-1H-imidazo[4,5-c]pyridin-4-amine] | 129 to 130 °C |
| CCOCc1nc2c(N)nc(C)c(C)c2n1CCOCc1ccncc1 [Example 109, 2-(Ethoxymethyl)-6,7-dimethyl-1-[2-(pyridin-4-ylmethoxy)ethyl]-1II-imidazo[4,5-c]pyridin-4-amine] | 143 to 145 °C |
| Cc1nc(N)c2ncn(CCOCc3ccncc3)c2c1C [Example 84, 6,7-Dimethyl-1-[2-(pyridin-4-ylmethoxy)ethyl]-1H-imidazo[4,5-c]pyridin-4-amine] | 195 to 196 °C |
| CCCc1nc2c(N)nc(C)c(C)c2n1CCCS(C)(=O)=O [Example 90, 1-[3-(Methanesulfonyl)propyl]-6,7-dimethyl-2-propyl-1H-imidazo[4,5-c]pyridin-4-amine] | 153.5 to 155 °C |
| CCCc1nc2c(N)nc(C)c(C)c2n1CCCCCS(=O)(=O)c1ccc(OC)cc1 | 130.5 to 132 °C |
| CCc1nc2c(N)nc(C)c(C)c2n1CCOCCNC(=O)NC(=O)c1ccccc1 [Example 107, N-{2-[2-(4-Amino-2-ethyl-6,7-dimethyl-1H-imidazo[4,5-c]pyridin-1-yl)ethoxy]ethyl}-N′-benzoylurea] | 185 to 187 °C |
| CCOCc1nc2c(N)nc(C)c(C)c2n1CCOCCCc1ccccc1 (as salt: hydrochloride) [Example 123, 2-Ethoxymethyl-6,7-dimethyl-1-[2-(3-phenylpropoxy)ethyl]-1H-imidazo[4,5-c]pyridin-4-amine hydrochloride] | 128 to 130 °C |
| CCCc1nc2c(N)nc(C)c(C)c2n1CCCCCS(=O)(=O)c1ccccn1 [Example 87, 6,7-Dimethyl-2-propyl-1-[5-(pyridine-2-sulfonyl)pentyl]-1H-imidazo[4,5-c]pyridin-4-amine] | 143 to 144.5 °C |
| CCCc1nc2c(N)nc(C)c(C)c2n1CCCCCS(=O)(=O)c1ccc(F)cc1 [Example 92, 1-[5-(4-Fluorobenzenesulfonyl)pentyl]-6,7-dimethyl-2-propyl-1H-imidazo[4,5-c]pyridin-4-amine] | 130 to 132 °C |
| CCOCc1nc2c(N)nc(C)c(C)c2n1CCOCCCc1cccnc1 [Example 11, 2-(Ethoxymethyl)-6,7-dimethyl-1-[2-(3-pyridin-3-ylpropoxy)ethyl]-1H-imidazo[4,5-c]pyridin-4-amine] | 78 to 78.5 °C |
| CCCc1nc2c(N)nc(C)c(C)c2n1CCCCCS(=O)(=O)c1ccc(Cl)cc1Cl [Example 95, 1-[5-(2,4-Dichlorobenzenesulfonyl)pentyl]-6,7-dimethyl-2-propyl-1H-imidazo[4,5-c]pyridin-4-amine] | 130 to 131.5 °C |
| CCOCc1nc2c(N)nc(C)c(C)c2n1CCOCC#Cc1cncnc1 [Example 111, 2-(Ethoxymethyl)-6,7-dimethyl-1-{2-[(3-pyrimidin-5-ylprop-2-ynyl)oxy]ethyl}-1H-imidazo[4,5-c]pyridin-4-amine] | 122 to 124 °C |
| CCOCc1nc2c(N)nc(C)c(C)c2n1CCOCCCc1nccs1 [Example 82, 2-(Ethoxymethyl)-6,7-dimethyl-1-{2-[3-(1,3-thiazol-2-yl)propoxy]ethyl}-1H-imidazo[4,5-c]pyridin-4-amine] | 91 to 92 °C |
| CCCc1nc2c(N)nc(C)c(C)c2n1CCCCCS(=O)(=O)c1ccc(F)cc1F [Example 93, 1-[5-(2,4-Difluorobenzenesulfonyl)pentyl]-6,7-dimethyl-2-propyl-1H-imidazo[4,5-c]pyridin-4-amine] | 130 to 132 °C |
